The subject of series [1] is human sperm. Put plainly: Acrosome reaction of capacitated sperm by FITC/PSA with Hoechst 33258 viability stain, first series. It counts as cell-based. The note with it: NT 30 ng/ml, calcium ionophore 5 μM, rhZP3 30 ng/ml, solubilized zona 0.5 ZP/μl, mean (± SEM). On the procedure:
The purified rhZP3 was also applied to test its activity to induce human sperm acrosome reaction. The motile sperm obtained by swim-up procedure were allowed to capacitate in HTF/0.5% HSA for four hours at 37° C. in 5% CO2 in huminified air. The motile sperm concentration used to detect acrosome reaction was set at 2 million/ml. A series of 100 ul of capacitated sperm aliquots with different inducers were prepared in Eppendorf vials and cultured in the incubator in 95% air, 5% CO2, at 37° C. for 30 minutes. The test was conducted as follows: positive control: calcium ionophore A23187 (Sigma) at 5 μM; negative controls: 1) sperm culture medium alone, and 2) protein isolated from the culture media of non-transfected PA-1 cells (NT); test: rhZP3. Triple slides were made for each assay. Hoechst 33258 stain was used for determination of sperm viability. Fluorescein isothiocyanate conjugated Pisum sativum agglutinin (FITC/PSA) (Sigma) staining technique was employed to evaluate the acrosome reaction (Cross et al, 1986). Blind reading was required for evaluation and at least 100˜200 cells from 5 random fields were evaluated per spot on the slide. […] The results were expressed as percentage of acrosome-reacted spermatozoa in the total population counted (Cross, 1986).
In some experiments, Solubilized zona pellucida were used as control to test its function to induce sperm acrosome reaction. The solubilized zona pellucida were prepared according to Franken et al (1996). Ooplasma was removed using a small glass micropipette. A vigorous pipetting action would break their zona causing ooplasma to be spilled into surrounding medium. The chosen amount of zonae was transferred into an eppendorf tube and was centrifuged for 15 minutes at 300×g. Using a steromicroscope, the media were removed with pipette, making sure not to disturb zona. The final result was to remove maximum medium. A chosen volume (depending on the zona concentration needed) of 10 mM HCl was added. Under the microscopic vision, zona/HCl was pipetted up and down until all zona were dissolved. Then 10 mM NaOH of equal volume as the HCl was added and mixed well to obtain the stock zona solution.

For series [2], the system named is human sperm. Put plainly: Acrosome reaction of live sperm by FITC-PSA, second series. The note with it: A23187 5 μM. It counts as cell-based. On the procedure: Determination of the acrosome reaction—The proportion of live acrosome-reacted spermatozoa incubated under capacitating conditions was determined with the fluorescent probe fluorescein isothiocyanate-labeled Pisum Sativum Agglutinin (FITC-PSA, Sigma) after staining with a supravital stain (Hoechst 33258, Sigma) following established techniques (12,13). At least 200 sperm per sample were evaluated in duplicate at 600× magnification using an epifluorescence microscope equipped with phase-contrast optics (Optiphot; Nikon, Melville, N.Y.). Slides were coded and read in a blind fashion.
A calcium ionophore agent (A23187, Sigma) tested at 5 μM and human acid solubilized zona pellucida tested at a final concentration of 4 zona/10 μl were used as positive controls (20). In further experiments, the acrosomal status was assessed by transmission electron microscopy. Spermatozoa were fixed by mixing sperm suspensions with equal volumes of 2% (v/v) glutaraldehyde (in 3 mM CaCl2 and 0.1 M sodium cacodylate); thereafter, samples were dehydrated twice and prepared for thin sectioning using previously published procedures. Ultrastructural examination was performed with a transmission electron microscope (Jeol JEM-1200 EX II, Peabody, Mass.).
Experiment 2: Characterization of the acrosome reaction inducing activity of the rhZP3 in dose- and sperm capacitation-dependency studies—Motile sperm fractions from 29 ejaculates of 11 different donors were incubated under capacitating conditions for 3 hours and assayed for acrosome reaction using FITC-PSA. Following swim-up, sperm aliquots were pre-incubated for 30 minutes with rhZP3 (30 ng/ml), A23187 (positive control), culture medium from non-transfected PA-cells (NT) or sperm culture medium (negative controls). This was the initially selected dose of rhZP3 to be tested as it had proven to effect significant inhibition of sperm-zona binding in the HZA.
The dose-dependent effect of rhZP3 on acrosome reaction was examined in the swim-up fractions obtained from four different donors. The fractions were capacitated for 3 hours and exposed for 30 min to rhZP3 at final concentrations of 0, 7.5, 15, 30, 60, 120, 240, 480, 960 and 1920 ng/ml. The capacitation-dependency of the acrosome reaction-inducing activity of rhZP3 was assessed in the swim-up fractions of four ejaculates from four different donors. Capacitation times included: 0 (immediately post-swim-up), 1, 4, 8, 12 and 24 hours. After the capacitation period, rhZP3 was added to the sperm suspension at a final concentration of 30 ng/ml.
In another set of experiments, three different ejaculates were used to compare the effects of the rhZP3 (tested at 500 ng/ml) with those of solubilized zonae pellucidae and the calcium ionophore. Further, the induction of the acrosome reaction was assessed in parallel with FITC-PSA and transmission electron microscopy. The goal of these studies was to compare the morphological features of the acrosome reaction between agonists and also between the agonist-induced and basal exocytosis rates.

The test system of a further series is sperm. Put plainly: Sperm motion parameters by computer analyzer. To be noted: data not shown.
The test system of a further series is Gi proteins. The series can be described thus: Pertussis toxin pre-incubation before rhZP3-induced acrosome reaction. Type of series: cell-based, human. The method, then: Experiment 3: Acrosome reaction-inducing activity of rhZP3: effect on Gi proteins—Motile sperm fractions were obtained from the ejaculates of three donors and incubated under capacitating conditions. In each experiment, the test aliquot was pre-incubated with pertussis toxin (100 ng/ml final concentration) for 4 hours followed by incubation with rhZP3 (500 ng/ml). A control aliquot was incubated in culture medium alone for 4 hours and then treated with rhZP3 at the same dose. After 30 min exposure to rhZP3 or control conditions, sperm were assayed for acrosome reaction using FITC-PSA.

For the molecule `CNc1ccc2oc(C[C@H]3O[C@@]4(CC[C@H]3C)O[C@H]([C@H](C)C(=O)c3ccc[nH]3)[C@H](C)C[C@H]4C)nc2c1C(=O)O` [Calcium ionophore, A23187, reference compound], in the series with human sperm [1] (4 h capacitation, 30 min), the “% acrosome reacted-sperm” value amounted to 22.5%. The “% sperm viability” value in the series on human sperm [1] is 96.5 (2.0) %. Also, the “live, acrosome reacted sperm” value in the series on human sperm [2] (rhZP3 30 ng/ml, 3 h capacitation, 30 min exposure) was found to be 19.4±4.1%. Besides, in the series with human sperm [2] (rhZP3 500 ng/ml, solubilized zona 4 zona/10 μl), the “induction of the acrosome reaction” value is on record as 34.7±5.2%. The “sperm motion parameters, treatment versus control” value in the series with sperm was “not significantly different”.

On to pertussis toxin, for which the “sperm motion parameters, treatment versus control” value in the series on sperm was “not significantly different”. Besides, the “effect on basal rate of spontaneous acrosomal exocytosis” value in the series on Gi proteins (pertussis toxin 100 ng/ml) is given as “did not modify the basal rate of spontaneous acrosomal exocytosis”. For the same molecule, the “effect on induction of the acrosome reaction by rhZP3” value in the series with Gi proteins (pertussis toxin 100 ng/ml 4 h, then rhZP3 500 ng/ml 30 min) is given as “inhibited the induction of the acrosome reaction by rhZP3”.

The values above are taken from patent US7037663B2, “Human zona pellucida protein 3 and uses thereof” (Eastern Virginia Medical School, priority 1998, dated 2006).
